# From ChEMBL document CHEMBL4004854, “Pyrrolo[3',2':6,7]cyclohepta[1,2-b]pyridines with potent photo-antiproliferative activity” (Eur J Med Chem, 2017)
# The source made the active and inactive calls. No cut-off for these calls is given here.
# How the values were obtained:
# K562 [1] = assay: Phototoxicity against human K562 cells assessed as reduction in cell viability preincubated for 30 mins followed by 1.25 J/cm2 UV light irradiation measured after 48 hrs by MTT assay; assay type: functional, cell-based; settings: K562, light or radiation study
# [2] = Dark toxicity against human MCF7 cells assessed as reduction in cell viability after 72 hrs by MTT assay; assay type: cell-based
# MCF7 [3] = assay: Phototoxic index, ratio of CC50 for human MCF7 cells under dark condition to EC50 for human MCF7 cells under UV light irradiated condition
# K562 [4] = assay: Phototoxic index, ratio of CC50 for human K562 cells under dark condition to EC50 for human K562 cells under UV light irradiated condition
# MCF7 [5] = assay: Phototoxicity against human MCF7 cells assessed as reduction in cell viability preincubated for 30 mins followed by 1.25 J/cm2 UV light irradiation measured after 48 hrs by MTT assay; assay type: functional, cell-based; settings: MCF7, light or radiation study
# [6] = Dark toxicity against human K562 cells assessed as reduction in cell viability after 72 hrs by MTT assay; assay type: cell-based
# Jurkat [7] = assay: Phototoxicity against human Jurkat cells assessed as reduction in cell viability preincubated for 30 mins followed by 1.25 J/cm2 UV light irradiation measured after 48 hrs by MTT assay; assay type: functional, cell-based; settings: light or radiation study
# Jurkat [8] = assay: Phototoxic index, ratio of CC50 for human Jurkat cells under dark condition to EC50 for human Jurkat cells under UV light irradiated condition
# [9] = Dark toxicity against human Jurkat cells assessed as reduction in cell viability after 72 hrs by MTT assay; assay type: cell-based
# MCF7 [10] = assay: Induction of lysosomal activation in human MCF7 cells at 400 nM upon UV light irradiation measured up to 6 hrs by lysotracker green DND26 dye based confocal microscopic method; assay type: functional, cell-based
# MCF7 [11] = assay: Induction of ROS generation in human MCF7 cells at 400 nM preincubated for 30 mins followed by UV light irradiation measured after 2 hrs by H2DCFDA staining based fluorescence assay relative to control; assay type: functional
# MCF7 [12] = assay: Induction of mitochondrial dysfunction in human MCF7 cells assessed as organelle fusion at 400 nM upon UV light irradiation measured after 6 hrs by mitotracker orange CMTM-ROS/LCS1 dye based confocal microscopic method; assay type: functional, cell-based
# [13] = Induction of singlet oxygen photogeneration in aqueous acetonitrile solution of ADPA assessed as photobleaching of anthracene absorption upon 150 Watt mercury light irradiation at 400 nanometer measured up to 2 hrs
# [14] = Singlet oxygen sensitizing activity in aqueous acetonitrile solution irradiated with nanosecond laser flash photolysis assessed as lowest triplet-excited state by measuring long lived transient life time at 10^-4 M at 450 nanometer under argon saturated condition by spectroscopic method
# Jurkat [15] = assay: Phototoxicity against human Jurkat cells assessed as reduction in cell viability at 0.1 uM preincubated for 30 mins followed by 2.5 J/cm2 UV light irradiation measured after 72 hrs in presence of antioxidant GSH by MTT assay; assay type: functional, cell-based
# MCF7 [16] = assay: Induction of apoptosis in human MCF7 cells assessed as caspase-3 activation at 0.5 uM upon 2.5 J/cm2 UV light irradiation measured after 24 hrs by Western blot method; assay type: functional, cell-based
# Jurkat [17] = assay: Phototoxicity against human Jurkat cells assessed as reduction in cell viability at 0.1 uM preincubated for 30 mins followed by 2.5 J/cm2 UV light irradiation measured after 72 hrs in presence of vitamin E by MTT assay; assay type: functional, cell-based
# Escherichia coli [18] = assay: Induction of Escherichia coli pBR322 DNA double strand break assessed as linear form DNA bands at 10 to 40 uM upon 7.5 J/cm2 UV-A light irradiation by ethidium bromide staining based UV transillumination assay
# Escherichia coli [19] = assay: Induction of Escherichia coli pBR322 DNA oxidative damage at 40 uM upon 7.5 J/cm2 UV-A light irradiation in presence of Fpg by ethidium bromide staining based electrophoresis
# [20] = Solubility of the compound in aqueous acetonitrile solution; assay type: physicochemical; settings: buffer
# Escherichia coli [21] = assay: Induction of Escherichia coli pBR322 DNA single strand break assessed as open circular form DNA bands at 10 to 40 uM upon 7.5 J/cm2 UV-A light irradiation by ethidium bromide staining based UV transillumination assay
# Jurkat [22] = assay: Induction of lipid peroxidation in human Jurkat cells upon 2.5 J/cm2 UV light irradiation measured after 24 hrs by TBARS assay; assay type: functional, cell-based
# Escherichia coli [23] = assay: Induction of Escherichia coli pBR322 DNA oxidative damage at 40 uM upon 7.5 J/cm2 UV-A light irradiation in presence of endonuclease-3 by ethidium bromide staining based electrophoresis
# Jurkat [24] = assay: Phototoxicity against human Jurkat cells assessed as reduction in cell viability at 0.1 uM preincubated for 30 mins followed by 2.5 J/cm2 UV light irradiation measured after 72 hrs in presence of singlet oxygen scavenger sodium azide by MTT assay; assay type: functional, cell-based
# Jurkat [25] = assay: Phototoxicity against human Jurkat cells assessed as reduction in cell viability at 0.1 uM preincubated for 30 mins followed by 2.5 J/cm2 UV light irradiation measured after 72 hrs in presence of hydroxyl radical scavenger DMTU by MTT assay; assay type: functional, cell-based
smiles,measurement,setting,value
CCOC(=O)c1cc2c(n1Cc1ccccc1OC)-c1[nH]c(=O)c(S(=O)(=O)c3ccccc3)cc1CCC2,EC50,K562 [1],0.27 µM
same,CC50 at 72 h,[2],> 20 µM
same,Ratio CC50/EC50,MCF7 [3],>21.36
same,Ratio CC50/EC50,K562 [4],>74.07
same,EC50,MCF7 [5],0.94 µM
same,CC50 at 72 h,[6],> 20 µM
same,EC50,Jurkat [7],0.19 µM
same,Ratio CC50/EC50,Jurkat [8],>105.26
same,CC50 at 72 h,[9],> 20 µM
CCCCCCCCCCCCCC(=O)O[C@@H]1[C@@H](C)[C@@]2(O)[C@@H](C=C(CO)C[C@]3(O)C(=O)C(C)=C[C@@H]23)[C@@H]2C(C)(C)[C@]12OC(C)=O [PHORBOL MYRISTATE ACETATE],Activity,MCF7 [10],Active
same,Activity,MCF7 [11],120%
same,Activity,MCF7 [12],Active
CCOC(=O)c1cc2c(n1C)-c1[nH]c(=O)c(S(=O)(=O)c3ccccc3)cc1CCC2,EC50,K562 [1],10.7 µM
same,CC50 at 72 h,[2],> 20 µM
same,Ratio CC50/EC50,MCF7 [3],>20
same,Ratio CC50/EC50,K562 [4],>1.87
same,EC50,MCF7 [5],1 µM
same,CC50 at 72 h,[6],> 20 µM
same,EC50,Jurkat [7],3.3 µM
same,Ratio CC50/EC50,Jurkat [8],>6.06
same,CC50 at 72 h,[9],> 20 µM
COc1ccccc1Cn1ccc2c1-c1[nH]c(=O)c(S(=O)(=O)c3ccccc3)cc1CCC2,EC50,K562 [1],7.68 µM
same,CC50 at 72 h,[2],> 20 µM
same,Ratio CC50/EC50,MCF7 [3],>21.23
same,Ratio CC50/EC50,K562 [4],>2.6
same,EC50,MCF7 [5],0.94 µM
same,CC50 at 72 h,[6],> 20 µM
same,EC50,Jurkat [7],1.9 µM
same,Ratio CC50/EC50,Jurkat [8],>10.53
same,CC50 at 72 h,[9],> 20 µM
COc1ccc(Cn2ccc3c2-c2[nH]c(=O)c(S(=O)(=O)c4ccccc4)cc2CCC3)cc1,EC50,K562 [1],2.54 µM
same,CC50 at 72 h,[2],> 20 µM
same,Ratio CC50/EC50,MCF7 [3],>4.73
same,Ratio CC50/EC50,K562 [4],>7.87
same,EC50,MCF7 [5],4.23 µM
same,CC50 at 72 h,[6],> 20 µM
same,EC50,Jurkat [7],0.93 µM
same,Ratio CC50/EC50,Jurkat [8],>21.51
same,CC50 at 72 h,[9],> 20 µM
CCOC(=O)c1cc2c(n1C)-c1c(cc(S(=O)(=O)c3ccccc3)c(=O)n1C)CCC2,EC50,K562 [1],3.53 µM
same,CC50 at 72 h,[2],> 20 µM
same,Ratio CC50/EC50,MCF7 [3],>4.2
same,Ratio CC50/EC50,K562 [4],>5.67
same,EC50,MCF7 [5],4.76 µM
same,CC50 at 72 h,[6],> 20 µM
same,EC50,Jurkat [7],1.15 µM
same,Ratio CC50/EC50,Jurkat [8],>17.39
same,CC50 at 72 h,[9],> 20 µM
Cn1ccc2c1-c1[nH]c(=O)c(S(=O)(=O)c3ccccc3)cc1CCC2,EC50,K562 [1],> 20 µM
same,CC50 at 72 h,[2],> 20 µM
same,Ratio CC50/EC50,MCF7 [3],>6.77
same,EC50,MCF7 [5],2.96 µM
same,CC50 at 72 h,[6],> 20 µM
same,EC50,Jurkat [7],> 20 µM
same,CC50 at 72 h,[9],> 20 µM
CCOC(=O)c1cc2c(n1Cc1ccccc1)-c1[nH]c(=O)c(S(=O)(=O)c3ccccc3)cc1CCC2,EC50,K562 [1],0.4 µM
same,CC50 at 72 h,[2],> 20 µM
same,Ratio CC50/EC50,MCF7 [3],>14.22
same,Ratio CC50/EC50,K562 [4],>50
same,EC50,MCF7 [5],1.41 µM
same,CC50 at 72 h,[6],> 20 µM
same,EC50,Jurkat [7],0.3 µM
same,Ratio CC50/EC50,Jurkat [8],>66.67
same,CC50 at 72 h,[9],> 20 µM
COc1ccc(Cn2ccc3c2-c2nc(OC)c(S(=O)(=O)c4ccccc4)cc2CCC3)cc1,EC50,K562 [1],5.67 µM
same,CC50 at 72 h,[2],> 20 µM
same,Ratio CC50/EC50,MCF7 [3],>4.22
same,Ratio CC50/EC50,K562 [4],>3.53
same,EC50,MCF7 [5],4.74 µM
same,CC50 at 72 h,[6],> 20 µM
same,EC50,Jurkat [7],1.25 µM
same,Ratio CC50/EC50,Jurkat [8],>16
same,CC50 at 72 h,[9],> 20 µM
COc1nc2c(cc1S(=O)(=O)c1ccccc1)CCCc1ccn(C)c1-2,EC50,K562 [1],5.76 µM
same,CC50 at 72 h,[2],> 20 µM
same,Ratio CC50/EC50,MCF7 [3],>9.35
same,Ratio CC50/EC50,K562 [4],>3.47
same,EC50,MCF7 [5],2.14 µM
same,CC50 at 72 h,[6],> 20 µM
same,EC50,Jurkat [7],1.96 µM
same,Ratio CC50/EC50,Jurkat [8],>10.2
same,CC50 at 72 h,[9],> 20 µM
COc1cccc(Cn2ccc3c2-c2[nH]c(=O)c(S(=O)(=O)c4ccccc4)cc2CCC3)c1,EC50,K562 [1],> 20 µM
same,Activity,[13],inactive
same,CC50 at 72 h,[2],> 20 µM
same,Ratio CC50/EC50,MCF7 [3],>10.76
same,EC50,MCF7 [5],1.86 µM
same,CC50 at 72 h,[6],> 20 µM
same,Time,[14],> 30 microsec
same,EC50,Jurkat [7],> 20 µM
same,CC50 at 72 h,[9],> 20 µM
CCOC(=O)c1cc2c(n1Cc1cccc(OC)c1)-c1[nH]c(=O)c(S(=O)(=O)c3ccccc3)cc1CCC2,EC50,K562 [1],0.47 µM
same,CC50 at 72 h,[2],> 20 µM
same,Ratio CC50/EC50,MCF7 [3],>7.77
same,Ratio CC50/EC50,K562 [4],>42.55
same,EC50,MCF7 [5],2.58 µM
same,CC50 at 72 h,[6],> 20 µM
same,EC50,Jurkat [7],0.24 µM
same,Ratio CC50/EC50,Jurkat [8],>83.33
same,CC50 at 72 h,[9],> 20 µM
O=c1[nH]c2c(cc1S(=O)(=O)c1ccccc1)CCCc1ccn(Cc3ccccc3)c1-2,EC50,K562 [1],8.5 µM
same,CC50 at 72 h,[2],> 20 µM
same,Ratio CC50/EC50,MCF7 [3],>7.36
same,Ratio CC50/EC50,K562 [4],>2.35
same,EC50,MCF7 [5],2.72 µM
same,CC50 at 72 h,[6],> 20 µM
same,EC50,Jurkat [7],3.59 µM
same,Ratio CC50/EC50,Jurkat [8],>5.57
same,CC50 at 72 h,[9],> 20 µM
CCOC(=O)c1cc2c(n1Cc1ccc(OC)cc1)-c1nc(OC)c(S(=O)(=O)c3ccccc3)cc1CCC2,EC50,K562 [1],0.95 µM
same,CC50 at 72 h,[2],> 20 µM
same,Activity,Jurkat [15],Active
same,Activity,MCF7 [16],Active
same,Activity,Jurkat [17],inactive
same,Ratio CC50/EC50,MCF7 [3],>19.71
same,Ratio CC50/EC50,K562 [4],>21.05
same,Activity,Escherichia coli [18],inactive
same,EC50,MCF7 [5],1.01 µM
same,CC50 at 72 h,[6],> 20 µM
same,Activity,Escherichia coli [19],Active
same,solubility,[20],Insoluble
same,EC50,Jurkat [7],0.25 µM
same,Activity,Escherichia coli [21],inactive
same,Activity,Jurkat [22],Dose-dependent effect
same,Ratio CC50/EC50,Jurkat [8],>80
same,CC50 at 72 h,[9],> 20 µM
same,Activity,Escherichia coli [23],Active
same,Activity,Jurkat [24],Active
same,Activity,Jurkat [25],Active
CCOC(=O)c1cc2c(n1C)-c1nc(OC)c(S(=O)(=O)c3ccccc3)cc1CCC2,EC50,K562 [1],0.63 µM
same,CC50 at 72 h,[2],> 20 µM
same,Ratio CC50/EC50,MCF7 [3],>11.76
same,Ratio CC50/EC50,K562 [4],>31.75
same,EC50,MCF7 [5],1.7 µM
same,CC50 at 72 h,[6],> 20 µM
same,EC50,Jurkat [7],0.25 µM
same,Ratio CC50/EC50,Jurkat [8],>80
same,CC50 at 72 h,[9],> 20 µM
